Assay results: patent US20210300940A1 (Merck Patent GmbH, priority 2018, published 2021)

Tests used:
TLR7 = target: T1, TLR7 (Homo sapiens, UniProt Q9NYK1); experiment: HEK/293 TLR7 Cell Assay; type: cell-based; conditions: TLR7/NFKb HEK cells, R848 agonist 10 uM final concentration, Steady-Glo readout; read-out: TLR7 potency
T1 construct: expressed in transfected cells; host or cells: HEK/293 cells carrying TLR7 and an NF-kB luciferase reporter
T1 sequence (Q9NYK1 27-1049): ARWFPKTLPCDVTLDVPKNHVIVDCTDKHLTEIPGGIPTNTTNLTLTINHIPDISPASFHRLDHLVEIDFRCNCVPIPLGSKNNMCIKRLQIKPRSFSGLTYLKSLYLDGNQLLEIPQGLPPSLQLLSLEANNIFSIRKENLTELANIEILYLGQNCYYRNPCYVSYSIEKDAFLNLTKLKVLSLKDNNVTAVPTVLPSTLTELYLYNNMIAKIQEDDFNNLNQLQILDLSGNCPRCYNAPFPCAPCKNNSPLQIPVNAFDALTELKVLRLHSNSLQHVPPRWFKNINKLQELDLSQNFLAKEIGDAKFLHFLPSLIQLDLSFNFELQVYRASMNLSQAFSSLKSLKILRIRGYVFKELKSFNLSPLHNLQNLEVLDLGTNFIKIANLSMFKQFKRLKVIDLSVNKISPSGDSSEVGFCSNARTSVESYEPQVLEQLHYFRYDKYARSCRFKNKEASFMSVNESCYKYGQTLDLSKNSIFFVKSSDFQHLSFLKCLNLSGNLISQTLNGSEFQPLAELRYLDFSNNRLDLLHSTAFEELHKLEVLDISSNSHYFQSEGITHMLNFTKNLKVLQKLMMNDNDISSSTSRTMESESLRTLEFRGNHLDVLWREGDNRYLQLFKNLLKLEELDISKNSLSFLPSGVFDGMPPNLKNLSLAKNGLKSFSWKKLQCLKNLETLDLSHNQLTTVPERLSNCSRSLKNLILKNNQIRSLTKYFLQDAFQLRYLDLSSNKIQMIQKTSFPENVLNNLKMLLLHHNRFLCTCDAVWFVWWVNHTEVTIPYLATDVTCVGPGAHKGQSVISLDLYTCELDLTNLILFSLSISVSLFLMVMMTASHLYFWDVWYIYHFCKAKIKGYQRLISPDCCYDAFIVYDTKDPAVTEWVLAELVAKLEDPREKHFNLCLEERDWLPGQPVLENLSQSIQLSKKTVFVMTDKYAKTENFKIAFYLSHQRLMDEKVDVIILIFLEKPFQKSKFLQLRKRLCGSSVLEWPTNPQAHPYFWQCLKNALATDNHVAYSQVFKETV
In short: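 Compounds added to HEK cells expressing TLR7 with an NFκB reporter 30 min ahead of 10 uM R848 challenge; luciferase signal (Steady-Glo) measured after 5 h, cells having been seeded 24 h earlier at 5000 per well.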

TLR8 = target: T2, TLR8 (Homo sapiens, UniProt Q9NR97); experiment: HEK/293 TLR8 Cell Assay; type: cell-based; conditions: HEK cells, R848 agonist 30 uM final concentration, Steady-Glo readout; read-out: TLR8 potency
T2 construct: expressed in transfected cells; host or cells: HEK/293 reporter cells (NF-kB luciferase)
T2 sequence (Q9NR97 27-1041): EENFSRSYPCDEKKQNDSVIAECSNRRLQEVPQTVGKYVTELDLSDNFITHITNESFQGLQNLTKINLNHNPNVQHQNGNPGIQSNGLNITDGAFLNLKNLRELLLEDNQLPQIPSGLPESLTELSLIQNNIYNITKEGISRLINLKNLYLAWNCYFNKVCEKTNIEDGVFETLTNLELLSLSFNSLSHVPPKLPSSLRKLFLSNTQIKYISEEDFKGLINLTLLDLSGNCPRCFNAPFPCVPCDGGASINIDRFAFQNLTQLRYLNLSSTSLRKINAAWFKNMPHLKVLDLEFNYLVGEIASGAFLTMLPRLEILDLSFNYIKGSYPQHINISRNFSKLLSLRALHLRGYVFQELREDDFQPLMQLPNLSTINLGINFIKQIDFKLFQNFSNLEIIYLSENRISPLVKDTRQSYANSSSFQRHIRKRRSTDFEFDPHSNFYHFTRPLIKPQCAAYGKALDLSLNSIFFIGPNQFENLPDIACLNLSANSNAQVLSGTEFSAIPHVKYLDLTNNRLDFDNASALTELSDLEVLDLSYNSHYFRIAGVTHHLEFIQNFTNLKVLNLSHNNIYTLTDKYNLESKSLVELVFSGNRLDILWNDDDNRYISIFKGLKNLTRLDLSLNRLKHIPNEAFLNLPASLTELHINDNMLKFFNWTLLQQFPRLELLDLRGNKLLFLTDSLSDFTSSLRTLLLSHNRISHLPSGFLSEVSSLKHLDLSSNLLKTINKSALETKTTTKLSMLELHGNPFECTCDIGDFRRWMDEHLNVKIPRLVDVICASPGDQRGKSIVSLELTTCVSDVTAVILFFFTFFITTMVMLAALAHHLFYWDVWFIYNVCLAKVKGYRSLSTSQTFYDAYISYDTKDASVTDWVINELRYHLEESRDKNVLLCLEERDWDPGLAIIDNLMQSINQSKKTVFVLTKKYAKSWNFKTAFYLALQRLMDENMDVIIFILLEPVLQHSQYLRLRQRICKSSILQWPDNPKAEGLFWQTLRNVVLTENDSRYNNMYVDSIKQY

Compound | IC50 (TLR7) | IC50 (TLR8)
C[C@@H]1CN(c2cnc(C#N)c3ncccc23)C[C@H](CNCC2(F)CCOCC2)O1 [Example 377, 5-((2S,6R)-2-{[(4-Fluoro-tetrahydro-pyran-4-ylmethyl)-amino]-methyl}-6-methyl-morpholin-4-yl)-[1,7]naphthyridine-8-carbonitrile] | > 150 nM | > 150 nM
N#Cc1ccc(N2C[C@H](CN3CCC4(CC3)CC(=O)N4)O[C@H](C(F)(F)F)C2)c2nccnc12 (single isomer, unassigned) [Example 363] | < 75 nM | > 150 nM
N#Cc1ccc(N2C[C@H](NC(=O)[C@@]3(F)CCNC3)C[C@H](C(F)(F)F)C2)c2cccnc12 (single isomer, unassigned) [Example 164] | 75 to 150 nM | 75 to 150 nM
C[C@H]1C[C@@H](NCCN2CCOC2=O)CN(c2ccc(C(F)(F)F)c3ncccc23)C1 [Example 29, 3-{2-[(3R,5S)-5-Methyl-1-(8-trifluoromethyl-quinolin-5-yl)-piperidin-3-ylamino]-ethyl}-oxazolidin-2-one] | < 75 nM | < 75 nM
N#Cc1ccc(N2C[C@@H](C(F)(F)F)O[C@@H](C(=O)NC[C@@H](O)CO)C2)c2nccnc12 (single isomer, unassigned) [Example 282] | 75 to 150 nM | > 150 nM
C[C@@H]1CN(c2ccc(C#N)c3nccnc23)C[C@H](CN2CC(C)(O)C2)O1 [Example 218, 8-[(2S,6R)-2-(3-Hydroxy-3-methyl-azetidin-1-ylmethyl)-6-methyl-morpholin-4-yl]-quinoxaline-5-carbonitrile] | < 75 nM | > 150 nM
C[C@@H]1CN(c2ccc(C(F)(F)F)c3ncccc23)C[C@H](CN2CCC(N3CCOCC3)CC2)O1 [Example 329, 5-[(2R,6S)-2-Methyl-6-(4-morpholin-4-yl-piperidin-1-ylmethyl)-morpholin-4-yl]-8-trifluoromethyl-quinoline] | 75 to 150 nM | < 75 nM
C[C@H]1C[C@@H](NC(=O)C2CCN(C(=O)[C@@H](N)[C@@H](C)O)CC2)CN(c2ccc(C(F)(F)F)c3ncccc23)C1 [Example 182, 1-((2S,3R)-2-Amino-3-hydroxy-butyryl)-piperidine-4-carboxylic acid [(3R,5S)-5-methyl-1-(8-trifluoromethyl-quinolin-5-yl)-piperidin-3-yl]-amide] | < 75 nM | < 75 nM
COC[C@@H](O)CNC(=O)[C@H]1CN(c2ccc(C#N)c3nccnc23)C[C@@H](C)O1 (single isomer, unassigned) [Example 327] | < 75 nM | < 75 nM
(2S)—N-[(3R,5S)-5-amino-1-(8-cyanoquinazolin-5-yl)piperidin-3-yl]-2-(4-methylpiperazin-1-yl)propanamide [Example 97] | < 75 nM | > 150 nM
Cc1ncc(N2C[C@@H](C)C[C@@H](NC(=O)CC3C4CC3CN(C)C4)C2)c2cccnc12 (stereo partly drawn) [Example 165, 2-(3-Methyl-3-aza-bicyclo[3.1.1]hept-6-yl)-N-[(3R,5S)-5-methyl-1-(8-methyl-naphthyridin-5-yl)-piperidin-3-yl]-acetamide] | < 75 nM | < 75 nM
C[C@@H]1CN(c2ccc(C#N)c3ncncc23)C[C@H](C(=O)NC2CCN(C)C3(CCC3)C2)O1 (stereo partly drawn) [Example 347, (2R,6R)-4-(8-Cyano-quinazolin-5-yl)-6-methyl-morpholine-2-carboxylic acid (5-methyl-5-aza-spiro[3.5]non-8-yl)-amide] | < 75 nM | < 75 nM
C[C@@H]1CN(c2cnc(C(F)(F)F)c3ncccc23)C[C@H](CO)O1 [Example 383, [(2R,6R)-6-Methyl-4-(8-trifluoromethyl-[1,7]naphthyridin-5-yl)-morpholin-2-yl]-methanol] | > 150 nM | > 150 nM
CCN(CC)CCO[C@@H]1C[C@H](C)CN(c2ccc(C(F)(F)F)c3ncccc23)C1 (relative stereo) [Example 4, diethyl(2-[[cis-5-methyl-1-[8-(trifluoromethyl)quinolin-5-yl]piperidin-3-yl]oxy]ethyl)amine] | > 150 nM | < 75 nM
C[C@@H]1CN(c2cnc(C#N)c3ncccc23)C[C@H](CNC(=O)[C@@]2(F)CCNC2)O1 (single isomer, unassigned) [Example 336] | < 75 nM | < 75 nM
Cc1c(F)cc(N2C[C@@H](C)C[C@@H](NC(=O)CC3C4CC3CN(C)C4)C2)c2cccnc12 (stereo partly drawn) [Example 112, N-[(3R,5S)-1-(7-Fluoro-8-methyl-quinolin-5-yl)-5-methyl-piperidin-3-yl]-2-(3-methyl-3-aza-bicyclo[3.1.1]hept-6-yl)-acetamide] | < 75 nM | < 75 nM
C[C@@H]1CN(c2cnc(C#N)c3ncccc23)C[C@H](CNC(=O)C2(F)CCCNC2)O1 (stereo partly drawn) [Example 333, N-{[(2S,6R)-4-(8-cyano-1,7-naphthyridin-5-yl)-6-methylmorpholin-2-yl]methyl}-3-fluoropiperidine-3-carboxamide] | 75 to 150 nM | < 75 nM
C[C@H]1CN(c2ccc(C#N)c3nccnc23)C[C@H](CN2CCC(N3CCCC3)CC2)O1 [Example 232, 8-[(2S,6S)-2-Methyl-6-(4-pyrrolidin-1-yl-piperidin-1-ylmethyl)-morpholin-4-yl]-quinoxaline-5-carbonitrile] | < 75 nM | < 75 nM
N#Cc1ccc(N2C[C@H](NC(=O)[C@@H]3CCCN3)C[C@H](C(F)(F)F)C2)c2cccnc12 [Example 125, (2S)—N-[(3R,5S)-1-(8-cyanoquinolin-5-yl)-5-(trifluoromethyl)piperidin-3-yl]pyrrolidine-2-carboxamide] | < 75 nM | < 75 nM
C[C@@H]1CN(c2ccc(C#N)c3nccnc23)C[C@H](C(=O)NCC(O)C(F)(F)F)O1 (stereo partly drawn) [Example 237, (2R,6R)-4-(8-Cyano-quinoxalin-5-yl)-6-methyl-morpholine-2-carboxylic acid (3,3,3-trifluoro-2-hydroxy-propyl)-amide] | < 75 nM | < 75 nM
N#Cc1ncc(N2C[C@@H](C(=O)NCC3(F)CCNCC3)O[C@@H](C(F)(F)F)C2)c2cccnc12 (single isomer, unassigned) [Example 318] | > 150 nM | > 150 nM
C[C@H]1C[C@@H](NC(=O)C2CCCCN2)CN(c2ccc(C(F)(F)F)c3ncccc23)C1 (stereo partly drawn) [Example 181, Piperidine-2-carboxylic acid [(3R,5S)-5-methyl-1-(8-trifluoromethyl-quinolin-5-yl)-piperidin-3-yl]-amide] | < 75 nM | < 75 nM
